What was measured:
ddy strain of male mice [1] = assay: Acute toxicity (oral, mice, 7 days observation); assay type: in vivo
Protocol: (§1) Next, several tests for determining the pharmacological properties, in that acute toxicity, anti-pyretic activity, analgesic activity and anti-inflammatory activity of the present 1,1,3,5-substituted biuret compounds of the formula (1) were conducted and the test results are shown in Table (2). In the tests, each compounds to be tested was used as a suspension in 0.25% carboxymethylcellulose solution. Methods for testing are explained as follows:
The ddy strain of male mice (body weight, 20-25 g) were used as test animals. The mice were fasted overnight and the compound to be tested was administered orally. […] The lethal dose (mg/kg, body weight) of the test compound was determined in connection with the death number of mice/the number of mice tested. In Table 2, the values indicated with Δ marks are 50% lethal dose, LD50 (mg/kg, body weight).

ddy strain of male mice [2] = assay: Analgesic activity, acetic acid-induced stretching method; assay type: in vivo, mouse (ddy); details: for inhibition in vivo at 100 mg/kg / inhibition in vivo at 200 mg/kg: read-out: Analgesic activity, acetic acid-induced stretching method, inhibitory ratio
Protocol: as §1
According to the method reported by Koster et al., [Fed. Proc., Vol. 18, pp. 412 (1959)], the ddy strain of male mice (body weight, 20-25 g) were used as test animals. The mice were fasted overnight, 100 mg/kg body weight of the test compound was administered orally, then 1 hour after the administration, 0.2 ml of 0.7% acetic acid solution was injected intraperitoneally. The acetic acid-induced stretching symptom of mouse was observed. Analgesic activity of the test compound was calculated as the inhibitory ratio (%). In Table 2, the values in parentheses show the data obtained from the test by using the dosage other than 100 mg/kg body weight. Further, the values indicated with Δ marks show 50% effective dose, ED50 (mg/kg body weight).

[3] = test system: Wistar strain of male rats; assay: Anti-pyretic activity (dry-yeast-induced fever); assay type: in vivo, rat (Wistar); details: oral (dose not given), up to 4 hours after administration
Protocol: as §1
According to the method reported by Tanabe [Folia Pharmacologia Japonica, Vol. 73, pp. 803 (1977)], the Wistar strain of male rats (150-180 g, body weight) were used as test animals. The rats were fasted overnight, and 1 ml/100 g (body weight) of 10% dry-yeast suspension were subcutaneously injected on the back of the rats. Five hours after the injection, the test compound was administered orally, then the body temperature of the rat was measured at time sequences. Anti-pyretic activity of the test compound was determined as the FI (febril index) by integrating pyrogenetic curve up to 4 hours after the administration of the test compound with time, and indicated as inhibitory ratio (%) shown by the following formula, [formula]

ddy strain of male mice [4] = assay: Analgesic activity, Haffner method (morphine threshold dose, clamp); assay type: in vivo, mouse (ddy); details: for Analgesic activity, Haffner method, inhibitory ratio / inhibition in vivo at 100 mg/kg: 100 mg/kg oral, 45 minutes before morphine hydrochloride; for ED50 / inhibition in vivo at 100 mg/kg: Mus musculus; for ED50: oral, Δ mark, range in parentheses; for inhibition in vivo at 100 mg/kg: read-out: Analgesic activity, Haffner method, inhibitory ratio
Protocol: as §1
According to the modified method reported by Fujimura et. al., [Bulletin of the Institute for Chemical Research, Kyoto University, No. 25, pp. 36 (1951)], the ddy strain of male mice (body weight, 20-25 g) were used as test animals. The mice were fasted overnight, 100 mg/kg body weight of the test compound was administered orally, then 45 minutes after the administration, the threshold amount (1.5-2.5 mg/kg body weight) of morphine hydrochloride was injected subcutaneously. Then 1-hour pain reaction of the mouse caused by a clamp was observed. Analgesic activity of the test compound was calculated as the inhibitory ratio (%). In Table 2, the values in parentheses show the data obtained from the test by using the dosage other than 100 mg/kg body weight. Further, the values indicated with Δ marks show 50% effective dose, ED50 (mg/kg body weight).

[5] = 100 mg/kg oral, 1 hour before acetic acid

Row | Structure (SMILES) | Acute toxicity: death number of mice/number of mice tested (ddy strain of male mice [1]; 2000 mg/kg oral) | Anti-pyretic activity, inhibitory ratio (febril index) [3] [%] | Analgesic activity, Haffner method, inhibitory ratio (ddy strain of male mice [4]) [%] | Acute toxicity: death number of mice/number of mice tested (ddy strain of male mice [1]; 1000 mg/kg oral) | Analgesic activity, acetic acid-induced stretching method, inhibitory ratio (ddy strain of male mice [2]; [5]) [%] | further results
1 | CN(C)C(=O)NC(=O)Nc1ccccc1F [Compound No. 2, 1,1-Dimethyl-5-(2-fluorophenyl)biuret] | 0/4 |  |  |  |  | inhibition in vivo at 100 mg/kg (ddy strain of male mice [2]; Mus musculus, 100 mg/kg oral, 1 hour before acetic acid): 40%
2 | CN(C)C(=O)NC(=O)Nc1ccc(Cl)cc1 [Compound No. 3] | 0/4 |  |  |  |  | inhibition in vivo at 100 mg/kg (ddy strain of male mice [2]; Mus musculus, po): 50%
3 | CN(C)C(=O)N(C)C(=O)Nc1ccccc1F [Compound No. 7, 1,1,3-Trimethyl-5-(2-fluorophenyl)biuret] | 4/4 | 76 | 75 | 1/4 | 62.5 | 
4 | Cc1ccc(NC(=O)N(C)C(=O)N(C)C)cc1C [Compound No. 30, 1,1,3-Trimethyl-5-(3,4-dimethylphenyl)biuret] | 1/4 | 31 |  |  |  | ED50 (ddy strain of male mice [4]): 86 mg/kg
5 | CCN(C)C(=O)N(C)C(=O)Nc1ccccc1 [Compound No. 45, 1-ethyl-1,3-dimethyl-5-phenylbiuret] |  | 49 |  |  |  | ED50 (ddy strain of male mice [4]): 100 mg/kg; Analgesic activity, acetic acid-induced stretching method, inhibitory ratio (ddy strain of male mice [2]; 80 mg/kg oral): 50%
6 | CN(C)C(=O)N(C)C(=O)Nc1ccc(F)cc1 [compound 8, 1,1,3-Trimethyl-5-(4-fluorophenyl)biuret] |  | 61 | 62.5 |  | 87.5 | 
7 | CN(C)C(=O)N(C)C(=O)Nc1ccccc1Cl [compound 10, 1,1,3-Trimethyl-5-(2-chlorophenyl)biuret] | 0/4 | 66 | 37.5 |  |  | ED50 (ddy strain of male mice [2]; Mus musculus, oral, Δ mark, range in parentheses): 135 mg/kg
8 | CN(C)C(=O)N(C)C(=O)Nc1ccc(Cl)cc1Cl [compound 13, 1,1,3-Trimethyl-5-(2,4-dichlorophenyl)biuret] | 3/4 | 42 | 75 | 0/4 | 50 | 
9 | CN(C)C(=O)N(C)C(=O)Nc1ccc(Cl)c(Cl)c1 [compound 14, 1,1,3-Trimethyl-5-(3,4-dichlorophenyl)biuret] | 3/4 | 43 | 62.5 | 1/4 | 50 | 
10 | CN(C)C(=O)N(C)C(=O)Nc1c(Cl)cccc1Cl [compound 15, 1,1,3-Trimethyl-5-(2,6-dichlorophenyl)biuret] |  | 29 | 50 |  | 50 | 
11 | CN(C)C(=O)N(C)C(=O)Nc1ccc(N(C)C)cc1 [compound 19, 1,1,3-Trimethyl-5-(4-dimethylaminophenyl)biuret] | 0/4 | 26 | 50 |  | 62.5 | 
12 | CN(C)C(=O)N(C)C(=O)Nc1ccc(O)cc1 [compound 21, 1,1,3-Trimethyl-5-(4-hydroxyphenyl)biuret] | 3/4 |  |  | 0/4 |  | inhibition in vivo at 100 mg/kg (ddy strain of male mice [4]): 12.5%; inhibition in vivo at 100 mg/kg (ddy strain of male mice [2]; Mus musculus, po): 37.5%
13 | COc1ccccc1NC(=O)N(C)C(=O)N(C)C [compound 22, 1,1,3-Trimethyl-5-(2-methoxyphenyl)biuret] | 2/4 | 13 |  | 0/4 | 37.5 | inhibition in vivo at 100 mg/kg (ddy strain of male mice [4]): 50%
14 | COc1ccc(NC(=O)N(C)C(=O)N(C)C)cc1OC [compound 24, 1,1,3-Trimethyl-5-(3,4-dimethoxyphenyl)biuret] | 4/4 | 18 | 62.5 | 0/4 | 75 | 
15 | Cc1cccc(NC(=O)N(C)C(=O)N(C)C)c1C [compound 29, 1,1,3-Trimethyl-5-(2,3-dimethylphenyl)biuret] | 4/4 | 40 | 25 | 1/4 |  | 
16 | Cc1cccc(C)c1NC(=O)N(C)C(=O)N(C)C [compound 31, 1,1,3-Trimethyl-5-(2,6-dimethylphenyl)biuret] |  | 69 | 37.5 |  | 75 | 
17 | CSc1ccc(NC(=O)N(C)C(=O)N(C)C)cc1 [compound 34, 1,1,3-Trimethyl-5-(4-methylthiophenyl)biuret] | 4/4 |  |  | 0/4 | 50 | 
18 | CCCCNC(=O)N(C(=O)N(C)C)c1ccccc1 [compound 40] | 1/4 |  |  | 0/4 |  | inhibition in vivo at 100 mg/kg (ddy strain of male mice [4]): 62.5%; inhibition in vivo at 200 mg/kg (ddy strain of male mice [2]; Mus musculus, po): 62.5%
19 | CNC(=O)N(C)C(=O)N(c1ccccc1)c1ccccc1 [compound 65, 1,1-Diphenyl-3,5-dimethylbiuret] | 4/4 |  |  | 1/4 |  | inhibition in vivo at 100 mg/kg (ddy strain of male mice [4]): 50%; inhibition in vivo at 100 mg/kg (ddy strain of male mice [2]; Mus musculus, po): 12.5%
20 | CN(C(=O)Nc1ccccc1)C(=O)N1CCCC1 [compound 68, 1,1-Tetramethylene-3-methyl-5-phenylbiuret] |  | 24 |  |  |  | Acute toxicity: death number of mice/number of mice tested (ddy strain of male mice [1]; mouse, in vivo): 2/4; inhibition in vivo at 100 mg/kg (ddy strain of male mice [2]; Mus musculus, po): 75%
21 | O=C(NC(=O)N1CCCCC1)Nc1ccccc1 [compound 69, 1,1-Pentamethylene-5-phenylbiuret] | 0/4 |  |  |  |  | ED50 (ddy strain of male mice [4]): 115 mg/kg; inhibition in vivo at 200 mg/kg (ddy strain of male mice [2]; Mus musculus, po): 50%
22 | CNC(=O)N(C)C(=O)N1CCOCC1 [compound 72, 1,1-(3-Oxapentamethylene)-3,5-dimethylbiuret] | 0/4 |  |  |  |  | inhibition in vivo at 100 mg/kg (ddy strain of male mice [4]): 25%; inhibition in vivo at 100 mg/kg (ddy strain of male mice [2]; Mus musculus, po): 50%

Source: patent US4371544A, “Pharmaceutical composition containing 1,1,3,5-substituted biuret compound” (Taiho Pharmaceutical Company Limited, priority 1979, dated 1983)
